Experimental data from patent US20090036509A1, “N-(Ortho-Phenyl)-1-Methyl -3-Trifluoromethlpyrazole-4-Carboxanilides and Their Use as Fungicides” (BASF Aktiengesellschaft, priority 2004, published 2009).

Legend:
[1] = system: Botrytis cinerea; test: Activity against gray mold on bell pepper leaves caused by Botrytis cinerea, protective application; format: in vivo; conditions: visual rating after 5 days, untreated 90%
Description: The active compounds were prepared as a stock solution with 25 mg of active compound which was made up to 10 ml with a mixture of acetone and/or DMSO and the emulsifier Uniperol® EL (wetting agent having emulsifying and dispersing action based on ethoxylated alkyl phenols) in a volume ratio solvent/emulsifier of 99 to 1. The solution was then made up to 100 ml with water. This stock solution was diluted to the active compound concentrations stated below using the solvent/emulsifier/water mixture described. Activity Against Gray Mold on Bell Pepper Leaves Caused by Botrytis Cinerea Protective Application Bell pepper seedlings of the cultivar “Neusiedler Ideal Elite” were, after 2-3 leaves were well developed, sprayed to runoff point with an aqueous suspension having the concentration of active compounds stated below. The next day, the treated plants were inoculated with a spore suspension of Botrytis cinerea which contained 1.7×10^6 spores/ml in a 2% strength aqueous biomalt solution. The test plants were then placed in a dark climatized chamber at 22-24° C. and high atmospheric humidity. After 5 days, the extent of the fungal infection on the leaves could be determined visually in %. […]

[2] = system: Puccinia recondita; test: Curative activity against brown rust of wheat caused by Puccinia recondita; format: in vivo; conditions: wheat seedlings sprayed 1 day after inoculation, rated after 7 days, untreated 90%; for Infection in % at 4 ppm using PUCCRT K1: Use Example 2
Description: The active compounds were prepared as a stock solution with 25 mg of active compound which was made up to 10 ml with a mixture of acetone and/or DMSO and the emulsifier Uniperol® EL (wetting agent having emulsifying and dispersing action based on ethoxylated alkyl phenols) in a volume ratio solvent/emulsifier of 99 to 1. The solution was then made up to 100 ml with water. This stock solution was diluted to the active compound concentrations stated below using the solvent/emulsifier/water mixture described. Curative Activity Against Brown Rust of Wheat Caused by Puccinia Recondita Leaves of potted wheat seedlings of the cultivar “Kanzler” were inoculated with a spore suspension of brown rust (Puccinia recondita). The pots were then placed in a chamber with high atmospheric humidity (90 to 95%) and at 20-22° C. for 24 hours. During this time, the spores germinated and the germ tubes penetrated into the leaf tissue. The next day, the infected plants were sprayed to runoff point with an aqueous suspension having the concentration of active compounds stated below. The suspension or emulsion was prepared as described above. After the spray coating had dried on, the test plants were cultivated in a greenhouse at temperatures between 20 and 22° C. and at 65 to 70% relative atmospheric humidity for 7 days. The extent of the rust fungus development on the leaves was then determined. Curative Activity Against Brown Rust of Wheat Caused by Puccinia Recondita Leaves of potted wheat seedlings of the cultivar “Kanzler” were inoculated with a spore suspension of brown rust (Puccinia recondita). The pots were then placed in a chamber with high atmospheric humidity (90 to 95%) and at 20-22° C. for 24 hours During this time, the spores germinated and the germ tubes penetrated into the leaf tissue. The next day, the infected plants were sprayed to runoff point with an aqueous suspension having the concentration of active compounds stated below. The suspension or emulsion was prepared as described above. After the spray coating had dried on, the test plants were cultivated in a greenhouse at temperatures between 20 and 22° C. and at 65 to 70% relative atmospheric humidity for 7 days. The extent of the rust fungus development on the leaves was then determined. Curative Activity Against Brown Rust of Wheat Caused by Puccinia Recondita Leaves of potted wheat seedlings of the cultivar “Kanzler” were inoculated with a spore suspension of brown rust (Puccinia recondita). The pots were then placed in a chamber with high atmospheric humidity (90 to 95%) and at 20-22° C. for 24 hours. During this time, the spores germinated and the germ tubes penetrated into the leaf tissue. The next day, the infected plants were sprayed to runoff point with an aqueous suspension having the concentration of active compounds stated below. The suspension or emulsion was prepared as described above. After the spray coating had dried on, the test plants were cultivated in a greenhouse at temperatures between 20 and 22° C. and at 65 to 70% relative atmospheric humidity for 7 days. The extent of the rust fungus development on the leaves was then determined.

[3] = Use Example 4, bell pepper seedlings sprayed 1 day before inoculation
[4] = Use Example 1, bell pepper seedlings sprayed 1 day before inoculation

Row | SMILES | Infection in % at 4 ppm using BOTRCI P1 [1, 3] [%] | Infection in % at 250 ppm using PUCCRT K1 ([2]; Use Example 5) [%] | Infection in % at 4 ppm using BOTRCI P1 [1, 4] [%] | Infection in % at 4 ppm using PUCCRT K1 [2] [%] | Infection in % at 250 ppm using PUCCRT K1 ([2]; Use Example 3) [%]
1 | Cc1cc(Cl)ccc1-c1ccccc1NC(=O)c1cn(C)nc1C(F)(F)F [67.8] | 0 | 0 |  |  | 
2 | Cn1cc(C(=O)Nc2ccccc2-c2ccc(F)cc2)c(C(F)(F)F)n1 [Comp. 37of EP-A05 89 301] |  |  | 70 | 30 | 
3 | COc1ccc(-c2ccccc2NC(=O)c2cn(C)nc2C(F)(F)F)cc1 [Comp. 38of EP-A05 89 301] |  |  |  |  | 60
4 | Cc1ccccc1-c1ccccc1NC(=O)c1cn(C)nc1C(F)(F)F [Comp. 41of EP-A05 89 301] | 25 | 60 |  |  | 
5 | Cn1cc(C(=O)Nc2ccccc2-c2ccc(F)c(F)c2)c(C(F)(F)F)n1 [Comp. 67.4] |  |  | 40 | 5 | 
6 | COc1ccc(-c2ccccc2NC(=O)c2cn(C)nc2C(F)(F)F)c(F)c1 [Comp. 67.14] |  |  |  |  | 7
